We go through four compounds from patent EP2072513A1, “A cyano piperidinyl-phenil-oxazolidinone and use thereof” (Ferrer Internacional, S.A., priority 2007, dated 2009).

Values after ≈ are worked out from the molar mass of the structure shown. Like-named read-outs stand apart in the source and are kept apart here.

Data set [1] has as its system S. aureus ATCC 43300 MR 214. The experiment in a line: MIC, standard micro dilution method (NCCLS M7-A5). It counts as cell-based. To be noted: Staphylococcus aureus, ATCC43300.
For data set [2], the system named is S. epidermidis ATCC 12228 MR 11. The experiment in a line: MIC, standard micro dilution method (NCCLS M7-A5). The class given is cell-based. To be noted: Staphylococcus epidermidis, ATCC12228.
The test system of data set [3] is E. faecalis ATCC 29212 53. The experiment in a line: MIC, standard micro dilution method (NCCLS M7-A5). The class given is cell-based. Conditions: Enterococcus faecalis, ATCC29212.
Data set [4] deals with S. pneumoniae ATCC 49619 PR 215. The experiment in a line: MIC, standard micro dilution method (NCCLS M7-A5). It counts as cell-based. Conditions: Streptococcus pneumoniae, ATCC49619.
Data set [5] concerns the target T1, human MAO-A (Homo sapiens, UniProt P21397).
T1 construct: purchased Gentest, BD, USA; host or cells: SF9 insect cells (membranes)
T1 sequence (P21397 1-527): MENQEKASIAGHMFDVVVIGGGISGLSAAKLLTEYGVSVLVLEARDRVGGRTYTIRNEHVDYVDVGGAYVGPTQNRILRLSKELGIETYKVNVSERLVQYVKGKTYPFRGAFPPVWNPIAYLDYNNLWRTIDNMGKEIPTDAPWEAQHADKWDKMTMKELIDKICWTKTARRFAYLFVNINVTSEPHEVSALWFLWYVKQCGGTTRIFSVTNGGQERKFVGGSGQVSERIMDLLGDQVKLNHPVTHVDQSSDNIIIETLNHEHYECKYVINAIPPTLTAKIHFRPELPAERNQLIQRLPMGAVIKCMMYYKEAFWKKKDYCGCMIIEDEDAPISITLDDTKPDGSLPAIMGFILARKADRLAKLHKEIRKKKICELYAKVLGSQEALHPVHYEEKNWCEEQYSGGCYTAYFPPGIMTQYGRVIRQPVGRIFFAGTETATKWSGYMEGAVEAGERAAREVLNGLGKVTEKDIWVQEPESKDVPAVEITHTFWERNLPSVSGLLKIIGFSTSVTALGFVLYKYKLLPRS
Nature of the data set: In vitro MAO-A enzymatic activity (kynuramine substrate, fluorescence). It counts as biochemical. Conditions: membranes from SF9 cells, kynuramine 30 µM, 37° 40 min. On the procedure: (§1) MAO-A and MAO-B enzymatic activities were measured using membranes obtained from SF9 cells expressing either human MAO-A or human MAO-B (Gentest, BD, USA). Assays were done in blank 96-well micro titter plates using kynuramine as substrate and measuring the formation of 4-hydroxyquinoline by fluorescence at 340 nm/465 nm. Briefly, membranes with MAO-A (0.006 mg/mL protein) and MAO-B (0.015 mg/mL protein) were incubated with kynuramine, 30 µM, at 37° for 40 min in the presence of the compound in a final volume of 200 µL. Reactions were stopped by adding NaOH 2N and the reaction product, 4-hydroxyquinoline, was determined by fluorometry using a Tecan Ultra reader.

The test system of data set [6] is S. aureus ATCC 25923 MS 319. The experiment in a line: MIC, standard micro dilution method (NCCLS M7-A5). The class given is cell-based. Conditions: Staphylococcus aureus, ATCC25923.
Data set [7] concerns S. aureus clinical strain cfr methylase 432. Nature of the data set: MIC, standard micro dilution method (NCCLS M7-A5). To be noted: Staphylococcus aureus; S. aureus clinical strain cfr methylase 432 (linezolid-resistant). The class given is cell-based.
For data set [8], the system named is B. fragilis ATCC 25285 A12. Nature of the data set: MIC, standard micro dilution method (NCCLS M7-A5). The class given is cell-based. To be noted: Bacteroides fragilis, ATCC25285; B. fragilis ATCC 25285 A12, anaerobic, Brucella Blood medium.
Data set [9] relates to E. faecium ATCC 10541 13. Nature of the data set: MIC, standard micro dilution method (NCCLS M7-A5). It counts as cell-based. Conditions: Enterococcus faecium, ATCC10541.
For data set [10], the target named is T2, human MAO-B (Homo sapiens, UniProt P27338).
T2 construct: purchased Gentest, BD, USA; host or cells: SF9 insect cells (membranes)
T2 sequence (P27338 1-520): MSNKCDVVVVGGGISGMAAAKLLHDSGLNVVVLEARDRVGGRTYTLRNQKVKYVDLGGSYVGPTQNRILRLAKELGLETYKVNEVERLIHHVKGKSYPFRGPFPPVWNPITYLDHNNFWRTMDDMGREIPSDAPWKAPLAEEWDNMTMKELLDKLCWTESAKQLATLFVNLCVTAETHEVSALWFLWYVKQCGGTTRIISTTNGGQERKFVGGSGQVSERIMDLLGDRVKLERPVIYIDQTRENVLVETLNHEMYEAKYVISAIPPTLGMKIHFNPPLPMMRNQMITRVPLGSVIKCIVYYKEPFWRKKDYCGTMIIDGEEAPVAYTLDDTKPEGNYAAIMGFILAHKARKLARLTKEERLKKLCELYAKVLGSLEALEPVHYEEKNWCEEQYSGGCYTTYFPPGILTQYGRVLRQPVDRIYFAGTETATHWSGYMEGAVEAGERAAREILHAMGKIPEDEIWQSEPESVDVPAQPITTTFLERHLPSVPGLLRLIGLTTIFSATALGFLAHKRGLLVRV
The experiment in a line: In vitro MAO-B enzymatic activity (kynuramine substrate, fluorescence). Conditions: membranes from SF9 cells, kynuramine 30 µM, 37° 40 min. The class given is biochemical. On the procedure:
as §1

In data set [11] the test system is Moraxella catarrhalis HCl-78 259/339. Nature of the data set: MIC, standard micro dilution method (NCCLS M7-A5). It counts as cell-based. Conditions: HCL78259/339.
Data set [12] relates to Moxarella, Pasteurella and Bacteroides spp. To be noted: cited from earlier work.
The nature of data set [13]: Equilibrium solubility of polymorphic forms in solvent systems. The class given is physicochemical. On the procedure: Table 1: Equilibrium solubilities of polymorphic form B. Solubility studies were also performed for polymorphic form A. In Table 2 appear the data obtained. Table 2: Equilibrium solubilities of polymorphic form A.
A short description of data set [14]: Suspension equilibration experiments (relative stability of polymorphic forms). It counts as physicochemical. Conditions: at room temperature (17-30 °C). An excerpt: However, a mixture of polymorphic form A and B in water slowly converted into pure polymorphic form B as well. Similarly, a suspension containing a mixture of polymorphic forms B and C in ethanol converted into polymorphic form B after some time.

For the compound `CC(=O)NC[C@H]1CN(c2ccc(N3CCC(C#N)CC3)c(F)c2)C(=O)O1` [Compound (Ia), (S)-N-{3-[4-(4-cyano-piperidin-1-yl)-3-fluoro-phenyl]-2-oxo-oxazolidin-5-ylmethyl}-acetamide], the MIC worked out at 1 µg/mL (≈ 2.77 µM) in [1]; 1 µg/mL (≈ 2.77 µM) in [2]; 1 µg/mL (≈ 2.77 µM) in data set [3]; 0.5 µg/mL (≈ 1.39 µM) in [4]; 1 µg/mL (≈ 2.77 µM) in [6]; 2 µg/mL (≈ 5.55 µM) in data set [7]. The MIC was 1 µg/mL (≈ 2.77 µM) in [8], 0.5 µg/mL (≈ 1.39 µM) in [9] and 1 µg/mL (≈ 2.77 µM) in data set [11]. In addition, the Ki was 1050 nM in data set [5] and 2450 nM in data set [10].

For `CC(=O)NC[C@H]1CN(c2ccc(N3CCOCC3)c(F)c2)C(=O)O1` [Linezolid, N-[[(5S)-3-[3-fluoro-4-(4-morpholinyl)phenyl]-2-oxo-5-oxazolidinyl]methyl]acetamide, reference compound], the MIC in data set [1] was 1 µg/mL (≈ 2.96 µM); in data set [2], 1 µg/mL (≈ 2.96 µM); in [3], 0.5 µg/mL (≈ 1.48 µM); in [4], 1 µg/mL (≈ 2.96 µM); in data set [6] it was 1 µg/mL (≈ 2.96 µM); in [7] it was 16 to 32 µg/mL (≈ 47.4 to 94.9 µM). Moreover, the MIC came out at 2 µg/mL (≈ 5.93 µM) in data set [8], 1 µg/mL (≈ 2.96 µM) in data set [9] and 2 µg/mL (≈ 5.93 µM) in [11]. The same compound yielded a Ki in [5] of 6960 nM. Moreover, the MICs in [12] is 2 to 8 µg/mL.

For `CC(=O)NC[C@H]1CN(c2ccc(N3CCC(C#N)CC3)c(F)c2)C(=O)O1` [polymorphic form A, (S)-N-{3-[4-(4-cyano-piperidin-1-yl)-3-fluoro-phenyl]-2-oxo-oxazolidin-5-ylmethyl}-acetamide], the “Solubility” value in data set [13] (Ethanol) is 6300 to 7300 µg/mL; in [13] (Ethyl acetate), 11800 to 15400 µg/mL; in data set [13] (Water (Fluka 95305), pH 8.9), 390 µg/mL (≈ 1080 µM); in [13] (water, pH 8.7, water, thermodynamic from solid, Water (Fluka 95305), pH 8.7, read-out: Solubility), 400 µg/mL (≈ 1110 µM).

For `CC(=O)NC[C@H]1CN(c2ccc(N3CCC(C#N)CC3)c(F)c2)C(=O)O1` [polymorphic form B, (S)-N-{3-[4-(4-cyano-piperidin-1-yl)-3-fluoro-phenyl]-2-oxo-oxazolidin-5-ylmethyl}-acetamide], the “relative stability of the polymorphic forms” value in data set [14] is “the most stable one”. For the same compound, the “Solubility” value in data set [13] (Ethanol) came out at 2600 µg/mL (≈ 7210 µM); in data set [13] (Ethyl acetate) it was 2900 µg/mL (≈ 8050 µM); in [13] (water, pH 8.9, water, thermodynamic from solid, Water (Fluka 95305), pH 8.9, read-out: Solubility), 240 µg/mL (≈ 666 µM).

For orientation: MIC means the lowest concentration that inhibits growth of the organism. As usually defined, the Ki is the dissociation constant of the complex between target and ligand, obtained from inhibition or displacement. By Solubility is commonly meant how much of the substance goes into solution per volume.
